Experimental data as given in the NIST ThermoML archive (doi:10.1021/je060017i).
Numbers after ± are expanded uncertainties.

Details: 101.33 kPa, Liquid

mass density (283.15 K) [kg/m3] | speed of sound (283.15 K) [m/s] | viscosity (283.15 K) [mPa·s] | mass density (298.15 K) [kg/m3] | speed of sound (298.15 K) [m/s] | viscosity (298.15 K) [mPa·s] | mass density (313.15 K) [kg/m3] | speed of sound (313.15 K) [m/s] | viscosity (313.15 K) [mPa·s] | SMILES
816.92 ± 0.59 | 1292.1 ± 1.7 | 3.869 ± 0.087 | 805.73 ± 0.6 | 1242.9 ± 1.6 | 2.561 ± 0.059 | 794.38 ± 0.6 | 1186.3 ± 1.6 | 1.757 ± 0.042 | CCCCO [butan-1-ol]
864.17 ± 0.55 | 1276.6 ± 1.6 | 0.5618 ± 0.015 | 849.04 ± 0.56 | 1202.2 ± 1.6 | 0.4776 ± 0.014 | 833.76 ± 0.57 | 1129.9 ± 1.6 | 0.4088 ± 0.012 | CC1CCCO1 (stereo not drawn) [2-methyltetrahydrofuran]
